# Laboratory results taken from US20160002174A1, “CXCR4 Antagonists for the Treatment of Medical Disorders” (Emory University, priority 2005, published 2016).
# Entries after “also recorded” stand apart in the source; their conditions may differ.
# Key:
# CXCR4 protein levels = CXCR4 protein levels in treated cells; format: cell-based, human
# Description: (§1) CXCR4/SDF-1 interaction activates PI3K/Akt and Ras/Raf/MEK/Erk pathways in a Gαi protein (PTX-sensitive)-dependent manner.
# Erk1/2 phosphorylation = experiment: SDF-1-stimulated Erk1/2 phosphorylation; format: cell-based, human; details: data not shown
# Description: as §1
# phosphorylation of Akt = experiment: SDF-1-stimulated phosphorylation of Akt (western blot); format: cell-based, human; details: for blocking of SDF-1-stimulated Akt phosphorylation (dose-dependent): MDA-MB-231 cells, 100 ng/ml SDF-1 for 30 min
# Description: FIG. 2 is an image of a western blot showing phosphorylation of Akt.
# FIG. 10 is a graph and representative blot of matrigel invasion and Akt phosphorylation in cells.
# as §1
# [1] = cited from earlier work
# CXCR4 = CXCR4 (Homo sapiens, UniProt P61073); experiment: Competition assay using biotin-labeled TN14003 and streptavidin-conjugated rhodamine on tumor cells; format: binding; details: cells pre-incubated with different concentrations
# Procedure: FIG. 8 is images of fluorescens micrographs of stained cells. Biotin-labeled TN14003 was used to detect CXCR4 protein from the cells pre-incubated with various concentrations of WZZL811S.
# Using biotin-labeled TN14003 along with streptavidin-conjugated rhodamine allowed a determination of the binding efficiency of these chemicals to the SDF-1 binding site of CXCR4 on tumor cells and compared it to AMD3100-SDF-1 interactions (FIG. 7). […] Cells were pre-incubated with different concentrations of AMD3100. […] Therefore, one of these compounds, WZZL811S, was selected to study its therapeutic potential based on potency and low toxicity to cells (FIG. 9).
# metastatic 686LN cells = experiment: Head & Neck cancer metastasis model, 686LN cells injected through the tail vein, FDG-PET; format: in vivo, mice; details: 20 mg/mouse/twice weekly, thirty days
# Procedure: The metastatic 686LN cells were injected intravenously through the tail vein to generate experimental animal models for Head & Neck cancer metastasis, modulated via CXCR4. […] These 3-D projection images show lung metastases well (bone mets and liver mets were apparent in axial section images of mice in control groups, data not shown).
# MDA-MB-231 cells = experiment: Cell viability of MDA-MB-231 cells; format: cell-based, human; details: even at 100 μM (the highest concentration tested)
# SHIV = SHIV infection, p27 antigen capture; format: cell-based; details: 0.1, 1, 10 or 100 nM drug prior to infection; 2 to 5 days
# Procedure: The effect of the test compounds on HIV infection in model cells was analyzed by p27 antigen capture using SHIV infected cells. Cells were incubated with 0, 0.1, 1, 10 or 100 nM drug prior to infection with SHIV. Viral titer was measured after infection by analyzing levels of p27 antigen. […] The inhibition was measurable at 2 days, and continued to 5 day incubations.
# [2] = system: CXCR4/SDF-1 mediated invasion of MDA-MB-231; experiment: Matrigel invasion assay, CXCR4/SDF-1-mediated invasion; format: cell-based, human; details: MDA-MB-231, 2 nM
# Procedure: FIG. 10 is a graph and representative blot of matrigel invasion and Akt phosphorylation in cells. A: Inhibition of CXCR4/SDF-1 mediated invasion of MDA-MB-231 in vitro by WZZL811S. CXCR4/SDF-1 mediated invasion of MDA-MB-231 was blocked either by 2 nM of TN14003 or WZZL811S. B: Incubating MDA-MB-231 cells with 100 ng/ml of SDF-1 for 30 min stimulated phosphorylation of Akt that blocked by WZZL811S in a dose-dependent manner
# Lowering CXCR4 mRNA levels by siRNAs inhibited CXCR4/SDF-1-mediated invasion as measured by a matrigel invasion assay. The CXCR4 ligand, SDF-1 (400 ng/ml) was added to the lower chamber to attract CXCR4-positive breast cancer cells to migrate through the matrigel. The invasion of MDA-MB-231 cells transfected with siRNA1 decreased to 39±4% of the control cells, 51±8% with siRNA2, and only 16±6% with both siRNA1+2 (FIG. 3A).
# WZZL811S was tested in a matrigel invasion assay to determine whether it can inhibit CXCR4/SDF-1-mediated invasion.
# [3] = system: human umbilical vein endothelial cells (HUVECs); experiment: Endothelial capillary tube formation assay; format: cell-based; details: 100 nM, SDF-1 100 ng/ml, 18 hours
# Procedure: The anti-angiogenic effect of test compounds was measured by analyzing endothelial cell growth and tube formation. The angiogenic effect of SDF-1 (100 ng/ml) on capillary formation by human umbilical vein endothelial cells (HUVECs) was examined in vitro using Matrigel-coated 24-well plates precoated with Matrigel and incubated for 18 hours. The angiogenic effect of SDF-1 was inhibited by either 100 nM TN14003 (peptide-based CXCR4 antagonist) or WZZL811S treatment (FIG. 14a, graph FIG. 14b).
# Sequence of CXCR4 (P61073 whole entry): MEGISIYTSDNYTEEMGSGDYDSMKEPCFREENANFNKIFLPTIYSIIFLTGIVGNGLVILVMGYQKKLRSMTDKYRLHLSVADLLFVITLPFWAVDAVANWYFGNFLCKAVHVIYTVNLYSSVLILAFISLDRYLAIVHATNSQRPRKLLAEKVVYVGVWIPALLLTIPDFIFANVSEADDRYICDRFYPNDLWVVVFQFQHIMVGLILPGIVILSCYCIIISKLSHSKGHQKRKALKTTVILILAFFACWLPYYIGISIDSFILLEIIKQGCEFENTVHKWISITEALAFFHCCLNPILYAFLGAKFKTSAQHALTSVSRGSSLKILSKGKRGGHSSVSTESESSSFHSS
SMILES,effect on CXCR4 protein levels (CXCR4 protein levels),concentration attenuating Erk1/2 phosphorylation (Erk1/2 phosphorylation) [nM],concentration blocking Akt activation (phosphorylation of Akt; 100 ng/ml SDF-1 for 30 minutes),blocking of SDF-1-stimulated Akt phosphorylation (dose-dependent) (phosphorylation of Akt),side effect in clinical study [1],concentration needed to compete against biotin-labeled TN14003 (CXCR4) [µM],efficacy relative to TN14003 (metastatic 686LN cells) [%],effect on cell viability (MDA-MB-231 cells),inhibition of SHIV infection (p27 antigen) (SHIV),blocking of SDF-1-induced matrigel invasion [2],inhibition of the angiogenic effect of SDF-1 (tube formation) [3]
C1=CC(CN2CCCNCCNCCCNCC2)CC=C1CN1CCCNCCNCCCNCC1 (stereo not drawn) [AMD3100],did not affect,100,a few nano molar,blocked,cardiac-related side effect,10,–,–,–,–,–
c1ccc(NCc2ccc(CNc3ccccn3)cc2)nc1 [WZZL811S],–,–,–,blocked,–,–,80,did not decrease cell viability,inhibited SHIV infection at all concentrations tested,blocked; also recorded: as potent as TN14003,inhibited
